Legend:
[1] = molecular target: T1, Wee1 (Homo sapiens, UniProt P30291); experiment: Immunoblot of Wee1 degradation in parental MOLT4 cells; type: cell-based
[2] = tested on: phosphorylation of CDK1 at Tyr15 (pCDK1 Y15); experiment: Immunoblot of pCDK1 Y15 in parental MOLT4 cells; type: cell-based
[3] = molecular target: T1, Wee1; experiment: KINOMEscan profiling; type: binding; conditions: 1 μM
[4] = molecular target: T2, PLK1 (Homo sapiens, UniProt P53350); experiment: KINOMEscan profiling; type: binding; conditions: 1 μM
T2 sequence (P53350 whole entry): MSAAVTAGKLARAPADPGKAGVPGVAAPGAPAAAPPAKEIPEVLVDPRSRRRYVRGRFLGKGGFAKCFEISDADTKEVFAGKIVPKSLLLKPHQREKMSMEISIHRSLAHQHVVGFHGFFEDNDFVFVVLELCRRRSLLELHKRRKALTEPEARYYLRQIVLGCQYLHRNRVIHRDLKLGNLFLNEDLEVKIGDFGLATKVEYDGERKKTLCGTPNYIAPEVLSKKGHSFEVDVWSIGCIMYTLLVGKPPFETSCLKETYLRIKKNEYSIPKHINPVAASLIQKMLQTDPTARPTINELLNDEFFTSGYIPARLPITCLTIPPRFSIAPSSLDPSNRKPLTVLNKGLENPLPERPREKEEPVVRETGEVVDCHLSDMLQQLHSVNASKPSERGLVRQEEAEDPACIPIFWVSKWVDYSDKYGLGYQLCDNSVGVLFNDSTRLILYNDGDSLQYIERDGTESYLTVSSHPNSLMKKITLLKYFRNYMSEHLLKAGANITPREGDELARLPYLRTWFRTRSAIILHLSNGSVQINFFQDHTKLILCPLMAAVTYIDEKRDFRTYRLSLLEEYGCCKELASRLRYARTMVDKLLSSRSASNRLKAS

[5] = tested on: pCDK1 Y15, PARP cleavage, γH2Ax; experiment: Immunoblot of downstream markers; type: cell-based; conditions: MOLT4 cells; for downstream changes (pCDK1 Y15, PARP cleavage, γH2Ax): 100 nM
[6] = tested on: MOLT4 cells; experiment: Cell cycle analysis by propidium iodide staining, parental MOLT4; type: cell-based; conditions: PI staining; for effect on cell cycle (G2/M proportion): 100 nM
[7] = tested on: MCF10A non-transformed mammary epithelial cell line; experiment: Image-based cell cycle assay in MCF10A
[8] = tested on: MOLT4 cells; experiment: CellTiter-Glo cell viability, parental MOLT4; type: cell-based; conditions: for IC50: Homo sapiens, MOLT-4, 72 h, read-out: IC50, antiproliferative activity
[9] = tested on: OVCAR8 cells; experiment: Synergy co-treatment, CellTiter-Glo in OVCAR8 cells; type: cell-based; conditions: for synergy with Olaparib: 72 hr co-treatment
[10] = molecular target: T1, Wee1; experiment: LanthaScreen FRET-based assay; type: binding; conditions: for engagement of recombinant Wee1: LanthaScreen, Table S1
[11] = tested on: 300 suspension and hematopoietic cancer cell lines; experiment: PRISM pooled cytotoxicity assay; type: cell-based
[12] = molecular target: T1, Wee1; experiment: Immunoblot of Wee1 degradation in CRBN−/− MOLT4 cells; type: cell-based; conditions: 5 hrs
[13] = tested on: phosphorylation of CDK1 at Tyr15 (pCDK1 Y15); experiment: Immunoblot of pCDK1 Y15 in CRBN−/− MOLT4 cells; type: cell-based; conditions: 5 hrs
[14] = molecular target: T2, PLK1; experiment: PLK1 abundance by proteomics and immunoblot in MOLT4 cells; type: cell-based; conditions: proteomics (100 nM, 2 hrs) or immunoblot
[15] = molecular target: ZFP91 (Homo sapiens, UniProt Q96JP5+Q96SW2); experiment: ZFP91 abundance by proteomics in MOLT4 cells; type: cell-based; conditions: 100 nM, 2 hrs
Sequence of ZFP91 (Q96JP5 whole entry): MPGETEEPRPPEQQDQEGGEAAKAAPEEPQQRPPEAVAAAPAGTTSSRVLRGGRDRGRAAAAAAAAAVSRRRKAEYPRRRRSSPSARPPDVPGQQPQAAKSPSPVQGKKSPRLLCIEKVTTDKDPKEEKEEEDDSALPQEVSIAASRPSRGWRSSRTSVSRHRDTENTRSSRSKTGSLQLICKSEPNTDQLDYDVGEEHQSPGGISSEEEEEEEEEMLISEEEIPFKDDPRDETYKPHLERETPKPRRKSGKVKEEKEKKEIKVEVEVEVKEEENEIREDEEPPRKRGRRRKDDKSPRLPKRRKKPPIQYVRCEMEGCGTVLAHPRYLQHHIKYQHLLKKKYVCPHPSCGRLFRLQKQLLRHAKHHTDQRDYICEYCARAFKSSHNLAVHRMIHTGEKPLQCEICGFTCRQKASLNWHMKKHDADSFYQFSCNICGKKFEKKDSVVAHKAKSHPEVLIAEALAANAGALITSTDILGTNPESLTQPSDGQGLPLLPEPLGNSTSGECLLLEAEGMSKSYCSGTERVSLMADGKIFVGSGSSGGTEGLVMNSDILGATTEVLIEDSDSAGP
Sequence of ZFP91 (Q96SW2 whole entry): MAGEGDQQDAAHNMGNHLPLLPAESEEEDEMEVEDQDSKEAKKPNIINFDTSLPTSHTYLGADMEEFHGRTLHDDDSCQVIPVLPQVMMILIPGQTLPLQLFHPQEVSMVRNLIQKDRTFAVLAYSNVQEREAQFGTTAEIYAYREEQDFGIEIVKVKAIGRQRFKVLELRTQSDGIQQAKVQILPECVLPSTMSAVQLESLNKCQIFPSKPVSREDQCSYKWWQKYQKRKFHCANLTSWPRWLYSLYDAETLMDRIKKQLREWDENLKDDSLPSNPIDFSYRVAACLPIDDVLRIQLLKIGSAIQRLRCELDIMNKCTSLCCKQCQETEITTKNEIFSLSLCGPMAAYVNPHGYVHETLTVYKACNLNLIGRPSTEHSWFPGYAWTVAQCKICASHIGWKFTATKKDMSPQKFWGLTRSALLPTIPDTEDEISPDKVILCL
Sequence of ZFP91 (Q16531 whole entry partner): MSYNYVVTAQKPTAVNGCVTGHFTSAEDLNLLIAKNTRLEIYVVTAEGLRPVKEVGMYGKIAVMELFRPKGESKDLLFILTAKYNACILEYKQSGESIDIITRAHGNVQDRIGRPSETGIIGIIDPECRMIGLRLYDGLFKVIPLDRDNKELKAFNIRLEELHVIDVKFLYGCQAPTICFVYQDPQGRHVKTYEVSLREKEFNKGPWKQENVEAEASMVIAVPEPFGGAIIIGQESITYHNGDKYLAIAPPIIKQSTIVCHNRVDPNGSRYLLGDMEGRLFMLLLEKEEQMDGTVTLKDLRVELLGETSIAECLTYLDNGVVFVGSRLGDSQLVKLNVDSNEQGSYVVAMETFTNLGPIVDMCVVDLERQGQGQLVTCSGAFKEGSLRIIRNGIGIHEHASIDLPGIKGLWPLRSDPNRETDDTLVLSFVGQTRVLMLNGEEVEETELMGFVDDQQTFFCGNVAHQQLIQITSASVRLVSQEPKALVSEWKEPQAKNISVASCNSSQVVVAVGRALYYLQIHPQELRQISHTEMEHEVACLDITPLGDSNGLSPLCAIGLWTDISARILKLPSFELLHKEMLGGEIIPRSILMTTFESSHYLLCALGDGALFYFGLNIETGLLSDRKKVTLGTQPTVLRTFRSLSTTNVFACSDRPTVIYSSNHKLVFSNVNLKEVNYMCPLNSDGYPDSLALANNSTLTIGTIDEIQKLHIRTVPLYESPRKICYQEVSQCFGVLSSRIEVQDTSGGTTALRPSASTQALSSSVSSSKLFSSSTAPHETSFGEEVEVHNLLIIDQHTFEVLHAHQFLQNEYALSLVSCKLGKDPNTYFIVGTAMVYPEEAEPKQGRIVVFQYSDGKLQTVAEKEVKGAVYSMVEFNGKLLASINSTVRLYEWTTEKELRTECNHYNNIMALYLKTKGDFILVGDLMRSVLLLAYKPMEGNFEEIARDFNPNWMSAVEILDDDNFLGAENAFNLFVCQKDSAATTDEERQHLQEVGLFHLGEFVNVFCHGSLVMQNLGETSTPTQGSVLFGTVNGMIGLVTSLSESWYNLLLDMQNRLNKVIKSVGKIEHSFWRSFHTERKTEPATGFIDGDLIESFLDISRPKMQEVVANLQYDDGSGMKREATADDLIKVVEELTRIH

[16] = molecular target: Ikaros (IKZF1) (Homo sapiens, UniProt Q13422+Q96SW2); experiment: IKZF1 degradation, proteomics/immunoblotting; type: cell-based
Sequence of Ikaros (IKZF1) (Q13422 whole entry): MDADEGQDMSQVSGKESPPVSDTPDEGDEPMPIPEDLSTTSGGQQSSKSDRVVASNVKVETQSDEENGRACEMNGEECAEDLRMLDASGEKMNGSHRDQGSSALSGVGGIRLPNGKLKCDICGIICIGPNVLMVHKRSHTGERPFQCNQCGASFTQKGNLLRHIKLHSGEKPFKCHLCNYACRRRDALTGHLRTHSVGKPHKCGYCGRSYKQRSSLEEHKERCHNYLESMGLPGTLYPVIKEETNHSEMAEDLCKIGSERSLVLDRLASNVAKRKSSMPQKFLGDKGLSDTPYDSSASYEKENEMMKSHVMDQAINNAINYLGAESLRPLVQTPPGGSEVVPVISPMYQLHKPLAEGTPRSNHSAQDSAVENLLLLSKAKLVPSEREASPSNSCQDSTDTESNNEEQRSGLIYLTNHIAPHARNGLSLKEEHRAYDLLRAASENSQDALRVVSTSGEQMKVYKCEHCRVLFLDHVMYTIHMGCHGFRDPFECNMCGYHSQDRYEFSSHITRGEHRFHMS
Sequence of Ikaros (IKZF1) (Q96SW2 whole entry): as the sequence (Q96SW2 whole entry) above
Sequence of Ikaros (IKZF1) (Q16531 whole entry partner): as the sequence (Q16531 whole entry partner) above

[17] = molecular target: Aiolos (IKZF3) (Homo sapiens, UniProt Q96SW2+Q9UKT9); experiment: IKZF3 degradation, proteomics/immunoblotting; type: cell-based
Sequence of Aiolos (IKZF3) (Q9UKT9 whole entry): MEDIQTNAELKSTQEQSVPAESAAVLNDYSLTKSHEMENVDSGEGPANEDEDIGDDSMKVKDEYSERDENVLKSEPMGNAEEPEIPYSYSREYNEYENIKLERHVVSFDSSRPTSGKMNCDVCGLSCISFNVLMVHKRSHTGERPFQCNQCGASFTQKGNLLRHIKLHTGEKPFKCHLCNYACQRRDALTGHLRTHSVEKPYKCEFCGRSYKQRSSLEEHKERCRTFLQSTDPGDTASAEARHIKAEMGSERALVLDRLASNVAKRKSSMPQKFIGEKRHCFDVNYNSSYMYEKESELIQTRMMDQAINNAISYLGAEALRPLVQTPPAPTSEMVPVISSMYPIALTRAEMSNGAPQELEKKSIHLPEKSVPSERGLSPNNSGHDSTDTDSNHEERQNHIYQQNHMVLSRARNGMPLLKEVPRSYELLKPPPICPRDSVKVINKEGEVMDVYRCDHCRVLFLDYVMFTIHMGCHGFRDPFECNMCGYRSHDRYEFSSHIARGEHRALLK
Sequence of Aiolos (IKZF3) (Q96SW2 whole entry): as the sequence (Q96SW2 whole entry) above
Sequence of Aiolos (IKZF3) (Q16531 whole entry partner): as the sequence (Q16531 whole entry partner) above

[18] = tested on: CRBN−/− MOLT4 cells; experiment: Cell cycle analysis by propidium iodide staining, CRBN−/− MOLT4; type: cell-based; conditions: 100 nM, 24 hrs
[19] = tested on: BT549, HCC1806, COV362, Kuramochi, OVCAR8 cell lines; experiment: Image-based cell cycle assay in TNBC and ovarian cancer cell lines
[20] = tested on: MOLT4 CRBN−/− cells; experiment: CellTiter-Glo cell viability, CRBN−/− MOLT4; type: cell-based; conditions: 72 hrs
[21] = tested on: OVCAR8, COV283, and Kuramochi ovarian cancer cell lines; experiment: Viability in ovarian cancer cell line panel; type: cell-based
[22] = tested on: OCE1 non-malignant ovarian line; experiment: Viability in non-malignant ovarian line; type: cell-based
[23] = molecular target: T1, Wee1; experiment: Wee1 degradation in OVCAR8 cells; type: cell-based
[24] = MOLT4 cells, 2 hrs pretreatment then 5 hrs co-treatment
[25] = 24 hr treatment, immunoblotting

T1 sequence (P30291 whole entry): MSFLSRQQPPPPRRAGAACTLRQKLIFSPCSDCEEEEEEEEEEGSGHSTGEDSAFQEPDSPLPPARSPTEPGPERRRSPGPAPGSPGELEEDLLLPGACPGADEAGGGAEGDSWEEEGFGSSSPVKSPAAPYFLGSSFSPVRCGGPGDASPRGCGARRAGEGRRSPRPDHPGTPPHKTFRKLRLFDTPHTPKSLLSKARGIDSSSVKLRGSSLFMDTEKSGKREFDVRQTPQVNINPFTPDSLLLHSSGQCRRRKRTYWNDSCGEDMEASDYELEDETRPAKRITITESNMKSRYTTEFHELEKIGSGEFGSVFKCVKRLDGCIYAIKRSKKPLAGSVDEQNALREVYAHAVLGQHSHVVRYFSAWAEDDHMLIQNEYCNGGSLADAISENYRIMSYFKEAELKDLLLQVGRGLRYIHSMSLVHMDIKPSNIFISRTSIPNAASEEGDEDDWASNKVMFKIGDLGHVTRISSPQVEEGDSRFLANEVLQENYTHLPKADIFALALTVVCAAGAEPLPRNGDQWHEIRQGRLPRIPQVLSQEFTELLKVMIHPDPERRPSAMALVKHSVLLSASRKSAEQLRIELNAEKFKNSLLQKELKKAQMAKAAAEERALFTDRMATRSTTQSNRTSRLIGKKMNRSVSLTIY

C=CCn1c(=O)c2cnc(Nc3ccc(N4CCN(C)CC4)cc3)nc2n1-c1cccc(C(C)(C)O)n1 [AZD1775, reference compound]
Wee1 degradation (immunoblot, in words) ([1]; MOLT4 cells, 5 hr treatment): insufficient to induce Wee1 degradation | effect on pCDK1 Y15 ([2]; MOLT4 cells, 1 μM pretreatment alone, independent of ZNL-02-096 co-treatment): decreased pCDK1 Y15 | KINOMEscan engagement of Wee1 [3]: strong engagement | KINOMEscan engagement of PLK1 [4]: strong engagement | concentration necessary to produce the same downstream changes ([5]; 24 hr): 1 µM | downstream changes (pCDK1 Y15, PARP cleavage, γH2Ax) ([5]; 24 hr): did not produce these downstream changes | effect on cell cycle (G2/M proportion) [6]: did not appreciably affect the cell cycle | dose needed to elicit the same cell cycle changes as 100 nM ZNL-02-096 [6]: 1 µM | cell cycle changes [7]: neither ZNL-02-096 nor AZD1775 induced significant cell cycle changes | IC50 [8]: 0.8 µM

Nc1cccc2c1C(=O)N(C1CCC(=O)NC1=O)C2=O (stereo not shown) [pomalidomide, reference compound]
Wee1 degradation (immunoblot, in words) ([1]; MOLT4 cells, 5 hr treatment): insufficient to induce Wee1 degradation | effect on pCDK1 Y15, apoptosis, DNA damage ([5]; 24 hr, 1 μM): did not affect phosphorylation of CDK1 Y15, apoptosis, or levels of DNA damage | cytotoxicity ([8]; alone, Fig. S3): no detectable cytotoxicity | synergy with Olaparib [9]: not synergistic | synergy with AZD1775 ([9]; co-treatment): not synergistic

C=CCn1c(=O)c2cnc(Nc3ccc(N4CCN(CCCNC(=O)CCOCCOCCNc5cccc6c5C(=O)N(C5CCC(=O)NC5=O)C6=O)CC4)cc3)nc2n1-c1cccc(C(C)(C)O)n1 (stereo not shown) [ZNL-02-012, N-(3-(4-(4-((2-allyl-1-(6-(2-hydroxypropan-2-yl)pyridin-2-yl)-3-oxo-2,3-dihydro-1H-pyrazolo[3,4-d]pyrimidin-6-yl)amino)phenyl)piperazin-1-yl)propyl)-3-(2-(2-((2-(2,6-dioxopiperidin-3-yl)-1,3-dioxoisoindolin-4-yl)amino)ethoxy)ethoxy)propenamide]
IC50 [10]: 0.001 to 0.01 µM | Wee1 degradation (immunoblot, in words) ([1]; MOLT4 cells, 5 hr treatment): induced Wee1 degradation | concentration required to achieve maximal Wee1 degradation ([1]; MOLT4 cells, 5 hr treatment): 1 µM

C=CCn1c(=O)c2cnc(Nc3ccc(N4CCN(CCCCCCNc5cccc6c5C(=O)N(C5CCC(=O)NC5=O)C6=O)CC4)cc3)nc2n1-c1cccc(C(C)(C)O)n1 (stereo not shown) [ZNL-02-040, 4-((6-(4-(4-((2-Allyl-1-(6-(2-hydroxypropan-2-yl)pyridin-2-yl)-3-oxo-2,3-dihydro-1H-pyrazolo[3,4-d]pyrimidin-6-yl)amino)phenyl)piperazin-1-yl)hexyl)amino)-2-(2,6-dioxopiperidin-3-yl)isoindoline-1,3-dione]
engagement of recombinant Wee1 [10]: potently engaged recombinant Wee1 | Wee1 degradation (immunoblot, in words) ([1]; MOLT4 cells, 5 hr treatment): induced Wee1 degradation

C=CCn1c(=O)c2cnc(Nc3ccc(N4CCN(CCCNc5cccc6c5C(=O)N(C5CCC(=O)N(C)C5=O)C6=O)CC4)cc3)nc2n1-c1cccc(C(C)(C)O)n1 (stereo not shown) [ZNL-02-178, 4-((3-(4-(4-((2-allyl-1-(6-(2-hydroxypropan-2-yl)pyridin-2-yl)-3-oxo-2,3-dihydro-1H-pyrazolo[3,4-d]pyrimidin-6-yl)amino)phenyl)piperazin-1-yl)propyl)amino)-2-(1-methyl-2,6-dioxopiperidin-3-yl)is oindoline-1,3-dione]
Wee1 degradation (immunoblot, in words) ([1]; MOLT4 cells, 5 hr treatment): inhibits but does not degrade Wee1 | effect on Wee1 protein levels ([1]; MOLT4 cells, out to 48 hrs after treatment): no effect on Wee1 protein levels | downstream changes (pCDK1 Y15, PARP cleavage, γH2Ax) ([5]; 24 hr): did not produce these downstream changes | effect on cell cycle (G2/M proportion) [6]: did not appreciably affect the cell cycle | potency in PRISM relative to ZNL-02-096 [11]: uniformly less potent | synergy with Olaparib [9]: less synergistic activity with Olaparib than ZNL-02-096 at low doses

C=CCn1c(=O)c2cnc(Nc3ccc(N4CCN(CCOCCOCCOCCNc5cccc6c5C(=O)N(C5CCC(=O)NC5=O)C6=O)CC4)cc3)nc2n1-c1cccc(C(C)(C)O)n1 (stereo not shown) [ZNL-02-047, 4-((2-(2-(2-(2-(4-(4-((2-Allyl-1-(6-(2-hydroxypropan-2-yl)pyridin-2-yl)-3-oxo-2,3-dihydro-1H-pyrazolo[3,4-d]pyrimidin-6-yl)amino)phenyl)piperazin-1-yl)ethoxy)ethoxy)ethoxy)ethyl)amino)-2-(2,6-dioxopiperidin-3-yl)isoindoline-1,3-dione]
IC50 [10]: 0.001 to 0.01 µM | Wee1 degradation (immunoblot, in words) ([1]; MOLT4 cells, 5 hr treatment): induced Wee1 degradation | concentration sufficient to degrade Wee1 ([1]; MOLT4 cells, 5 hr treatment): 100 nM

C=CCn1c(=O)c2cnc(Nc3ccc(N4CCN(CCCNc5cccc6c5C(=O)N(C5CCC(=O)NC5=O)C6=O)CC4)cc3)nc2n1-c1cccc(C(C)(C)O)n1 (stereo not shown) [ZNL-02-096, 4-((3-(4-(4-((2-Allyl-1-(6-(2-hydroxypropan-2-yl)pyridin-2-yl)-3-oxo-2,3-dihydro-1H-pyrazolo[3,4-d]pyrimidin-6-yl)amino)phenyl)piperazin-1-yl)propyl)amino)-2-(2,6-dioxopiperidin-3-yl)isoindoline-1,3-dione]
engagement of recombinant Wee1 [10]: potently engaged recombinant Wee1 | time to complete Wee1 degradation ([1]; MOLT4 cells, 100 nM): ≤ 3 h | Wee1 degradation ([1]; MOLT4 cells, 100 nM, within 30 min): over 50% | Wee1 degradation by ZNL-02-096 after MLN4924 pretreatment [1, 24]: prevented | Wee1 degradation by ZNL-02-096 after carfilzomib pretreatment [1, 24]: rescued | Wee1 degradation by ZNL-02-096 after pretreatment with excess AZD1775 [1, 24]: prevented ZNL-02-096-induced Wee1 degradation | Wee1 degradation by ZNL-02-096 after pretreatment with excess pomalidomide [1, 24]: only partial rescue | Wee1 degradation (immunoblot, in words) ([1]; MOLT4 cells, 5 hr treatment): degradation was most pronounced | duration of sustained Wee1 loss ([1]; MOLT4 cells, single 100 nM treatment): at least 48 hrs | concentration of maximal Wee1 degradation ([1]; parental MOLT4 cells, 5 hrs): 100 nM | concentration at which hook effect is apparent ([1]; parental MOLT4 cells, 5 hrs, top concentration): 10 µM | effect on Wee1 abundance [12]: did not affect Wee1 abundance | dose from which pCDK1 Y15 is reduced ([2]; parental MOLT4 cells, 5 hrs): 100 nM | dose from which pCDK1 Y15 is decreased [13]: 1 μM | KINOMEscan engagement of Wee1 [3]: strong engagement | KINOMEscan engagement of PLK1 [4]: strong engagement | PLK1 downregulation [14]: No downregulation of PLK1 | ZFP91 degradation [15]: low levels of ZFP91 degradation | IKZF1 degradation [16, 25]: degradation of both IKZF1 and IKZF3 was apparent | IKZF1 degradation ([16]; short time points): no degradation of either IKZF1 or IKZF3 | IKZF3 degradation [17, 25]: degradation of both IKZF1 and IKZF3 was apparent | IKZF3 degradation ([17]; short time points): no degradation of either IKZF1 or IKZF3 | fold lower dose than AZD1775 for the same downstream effects [5]: 10 fold | concentration producing reduced pCDK1 Y15, PARP cleavage and γH2Ax ([5]; 24 hr): 100 nM | effect on cell cycle (G2/M proportion) [6]: increased the proportion of MOLT4 cells in G2/M in a time-dependent manner | G2/M accumulation [18]: absent | G2/M phase accumulation [19]: induced G2/M phase accumulation at lower doses than either ZNL-02-178 or AZD1775 | cell cycle changes [7]: neither ZNL-02-096 nor AZD1775 induced significant cell cycle changes | IC50 [8]: 0.39 µM | shift in IC50, MOLT4 CRBN−/− versus parental cells [20]: approximately 6 fold | IC50 ([11]; read-out: IC50, PRISM): < 1 µM | cell death [21]: induced potent cell death | cytotoxicity [22]: little cytotoxicity | concentration of maximal Wee1 degradation [23]: 100 nM | synergy with Olaparib [9]: synergized with Olaparib

Source: PMC6980656 (Cell chemical biology, 2019)
